Laboratory results from patent US12110281B2, “Catechol derivatives or salt thereof, processes for preparing the same, and pharmaceutical compositions comprising the same” (HEXAPHARMATEC CO., LTD., priority 2018, dated 2024).
Where a name gives a salt, the structure may show the parent alone.

Tests used:
Hela cells = assay: Autophagy-inducing activities in Hela cells (Autophagy Detection Kit); assay type: cell-based
Experimental: The autophagy-inducing activities of the compounds of the present invention were measured in Hela cells (Korean Cell Line Bank), using the Autophagy Detection Kit (ab139484, Abcam), according to the manufacturer's instructions. Specifically, 100 μL of EBSS (Earle's Balanced Salt Solution, WELGENE (LB 002-03)) containing 10% fetal bovine serum (FBS) was added to each well of a 96-well plate. Hela cells (1×10^4 cells) were added to each well and then incubated overnight at 37° C. in a CO2 incubator so as to stabilize the cells. The medium of each well containing the stabilized cells was replaced with a medium obtained by adding 10 nM or 100 nM of the compounds prepared in Examples (test compounds) to a EBSS containing 10% FBS. As a positive control, rapamycin was dissolved in dimethyl sulfoxide and then treated at a concentration of 500 nM per well. After the treatments, the cells were incubated at 37° C. in a CO2 incubator for 4 hours or 24 hours and then washed twice with the 1× assay buffer (prepared by adding 9 mL of distilled water to the 10× assay buffer). EBSS containing 5% fetal bovine serum, 1 μL/ml of Green detection reagent and 1 μL/ml of Nuclear stain was added thereto in the amount of 100 μL per well. The cells were incubated for 1 hour at 37° C. in a CO2 incubator and then washed twice with the 1× assay buffer. The absorbance values were measured at 488 nm, using a microplate reader (Cytation 3). The tests were repeated four times.
The absorbance values, which were obtained by treating Hela cells with the test compounds (100 nM) and the positive control (rapamycin, 500 nM) and then incubating for 4 hours as described in above, are shown in Table 1 below. And also, the absorbance values, which were obtained by treating Hela cells with the test compounds (10 nM or 100 nM) and the positive control (rapamycin, 500 nM) and then incubating for 24 hours as described in above, are shown in Table 2 below.

[1] = tested on: dimethylnitrosamine (DMN)-induced liver injury male SD rats; assay: Liver function-improving activities by oral administration in the liver injury model (1), 3 weeks; assay type: in vivo, rat; details: serum, 25 mg/kg oral once a day
Text: The compounds according to the present invention were orally administered to dimethylnitrosamine (DMN)-induced liver injury male SD rats for 3 weeks, so as to evaluate liver function-improving activities. Specifically, 7-week-old male SD rats (Orient Bio, Korea) were accommodated to the laboratory environment at room temperature for 7 days. General symptoms were observed and then only healthy animals were used for the experiment. The rats were divided into 9 groups (n=5 for each group), the normal control group, the group to which only DMN is administered, and the groups to which both the compound of the present invention (the compounds of Example 2, 5, 6, 9, 10, 20 or 21) and DMN are administered. DMN was dissolved in purified water and then administered intraperitoneally at the dose of 10 mg/kg for 3 consecutive weeks (3 times per week, for 4 weeks). Blood samples were collected on Day 3 after the completion of the first-week liver injury inducement and then the ALT (Alanine Transaminase) values and the AST (Aspartate Transaminase) values were measured so as to confirm the liver injury thereof. The compounds of the present invention were administered for 3 weeks, i.e., from Day 4 after the completion of the first-week liver injury inducement to the DMN-administering period. The seven compounds of the present invention were dissolved in purified water or corn oil and then orally administered, using an oral sonde, at the dose of 25 mg/kg once a day for 3 weeks. Blood samples were collected on Day 0 (3 days after the completion of the first-week liver injury inducement) and Day 7, 14 and 21 after the administration of the test compounds. The collected blood was injected into a vacutainer tube containing a clot activator and then allowed to stand at room temperature for about 20 minutes so as to coagulate each blood sample. After centrifugation for 10 minutes, the resulting serums were subjected to blood-biochemical tests.

[2] = test compound 10 nM, incubation for 24 hours
[3] = test compound 100 nM, incubation for 4 hours
[4] = test compound 100 nM, incubation for 24 hours
[5] = 0 week (Day 0, before administration of test compound)

SMILES | Absorbance (at 488 nm) (Hela cells; [2]) | Absorbance (at 488 nm) (Hela cells; [3]) | Absorbance (at 488 nm) (Hela cells; [4]) | also measured
COc1cc(-c2ccc(C(=O)N3CCN(C)CC3)s2)ccc1O [Example 1, hydrochloride] | 1617.3 | 1321.2 | 1660.3 | 
CCN(CC)CCOc1ccc(-c2ccc(C(=O)N3CCN(C)CC3)s2)cc1OC.Cl.Cl [Example 2, N-(4-methylpiperazino)-5-(4-(2-diethylamino)ethoxy-3-methoxyphenyl)thiophene-2-carboxamide hydrochloride] | 1829.3 | 1460.5 | 1866.3 | ALT values (average value) [1, 5]: 67.24 U/L; AST values (average value) [1, 5]: 143.32 U/L; ALT values (average value) ([1]; 1 week): 101.70 U/L; AST values (average value) ([1]; 1 week): 210.86 U/L; ALT values (average value) ([1]; 2 weeks): 113.22 U/L; AST values (average value) ([1]; 2 weeks): 223.88 U/L; ALT values (average value) ([1]; 3 weeks): 126.10 U/L; AST values (average value) ([1]; 3 weeks): 250.76 U/L
COc1cc(-c2ccc(C(=S)N3CCN(C)CC3)s2)ccc1O [Example 3, N-(4-methylpiperazino)-5-(4-hydroxy-3-methoxyphenyl)thiophene-2-thiocarboxamide hydrochloride] | 1576.3 | 1193.8 | 1754.3 | 
CCN(CC)CCOc1ccc(-c2ccc(C(=S)N3CCN(C)CC3)s2)cc1OC.Cl.Cl [Example 4, N-(4-methylpiperazino)-5-(4-(2-diethylamino)ethoxy-3-methoxyphenyl)thiophene-2-thiocarboxamide hydrochloride] | 1691.3 | 1580.6 | 1618.3 | 
COc1cc(-c2ccc(C(=S)NCCN(C(C)C)C(C)C)s2)ccc1O.Cl [Example 7, N-(2-(diisopropylamino)ethyl)-5-(4-hydroxy-3-methoxyphenyl)thiophene-2-thiocarboxamide hydrochloride] | 1598.5 | 1325.5 | 1605.5 | 
CCN(CC)CCOc1ccc(-c2ccc(C(=S)NCCN(C(C)C)C(C)C)s2)cc1OC.Cl.Cl [Example 8, N-(2-(diisopropylamino)ethyl)-5-(4-(2-diethylamino)ethoxy-3-methoxyphenyl)thiophene-2-thiocarboxamide hydrochloride] | 1586.3 | 1315.2 | 1612.3 | 
COc1cc(-c2ccc(C(=S)NC(C)C)s2)ccc1O [Example 11, N-isopropyl-5-(4-hydroxy-3-methoxyphenyl)thiophene-2-thiocarboxamide] | 1459.7 | 1268.4 | 1731.0 | 
COc1cc(-c2ccc(C(=O)NCC3(N(C)C)CCOCC3)s2)ccc1O.Cl [Example 20, N-((4-(dimethylamino)tetrahydro-2H-pyran-4-yl)methyl)-5-(4-hydroxy-3-methoxyphenyl)thiophene-2-carboxamide hydrochloride] |  |  |  | ALT values (average value) [1, 5]: 69.80 U/L; AST values (average value) [1, 5]: 136.28 U/L; ALT values (average value) ([1]; 1 week): 87.26 U/L; AST values (average value) ([1]; 1 week): 194.88 U/L; ALT values (average value) ([1]; 2 weeks): 104.34 U/L; AST values (average value) ([1]; 2 weeks): 209.56 U/L; ALT values (average value) ([1]; 3 weeks): 116.14 U/L; AST values (average value) ([1]; 3 weeks): 229.74 U/L
CO[C@H]1C[C@@H]2CC[C@@H](C)[C@@](O)(O2)C(=O)C(=O)N2CCCC[C@H]2C(=O)O[C@H]([C@H](C)C[C@@H]2CC[C@@H](O)[C@H](OC)C2)CC(=O)[C@H](C)/C=C(\C)[C@@H](O)[C@@H](OC)C(=O)[C@H](C)C[C@H](C)/C=C/C=C/C=C/1C [Rapamycin, rapamycin, reference compound] |  |  |  | Absorbance (at 488 nm) (Hela cells; positive control 500 nM, incubation for 4 hours): 1306.2; Absorbance (at 488 nm) (Hela cells; positive control 500 nM, incubation for 24 hours): 1594.2
